Data on three compounds can be found in US4278595A, “Orally active MIF analogs with an effect on the central nervous system” (Vega Laboratories, Inc., priority 1979, dated 1981).

Format in all cases: in vivo, rat
Experiment [1] has as its system male Sprague-Dawley rats with unilateral 6-hydroxy-Dopamine lesion in the substantia nigra. Put plainly: Duration of L-DOPA-reversed rotational behavior in rats with unilateral 6-hydroxy-Dopamine lesion of the substantia nigra (third series). The procedure:
The MIF analogs were tested for "Parkinsonion" locomotor behavior response by three different test procedures. In the third series of tests, male Sprague-Dawley rats received a unilateral chemical lesion (by injection of 6-hydroxy-Dopamine) in the substantia nigra, which is followed by rotational movement. When L-DOPA is given i.p. (in two doses, 13 and 26 mg/kg) the direction of rotational movement is reversed, and the duration of the reversed rotational motion was measured in minutes. The same doses of L-DOPA were then given in the experimental groups in combination with 2 mg/kg of either MIF or the MIF analogs, all i.p., or by gastric tube in a dose of 4 mg/kg, and the duration, in minutes, of reversed rotational behavior was observed.

Experiment [2] deals with reserpinized male Long-Evans rats. Put plainly: Locomotor activity of reserpinized rats after intraventricular administration (first series). To be noted: rats reserpinized i.p. 10 mg/kg. The method, then: (§1) The MIF analogs were tested for "Parkinsonion" locomotor behavior response by three different test procedures.
In the first series of tests, male Long-Evans rats were prepared with a cannula fixed from the exterior to the lateral ventricle for direct intraventricular administration. The rats were reserpinized i.p. (10 mg/kg), and then MIF or MIF analogs, were given directly into the CSF. Activity of the rats was measured in counts/10 minutes with a digital printout activity meter (Columbus Instruments, model PB 5244, Columbus, Ohio). The results of these tests are as follows

Experiment [3] has the same test system. Put plainly: L-DOPA potentiation: locomotor activity of reserpinized rats given agent i.p. with Carbi-DOPA and L-DOPA (second series). To be noted: 2 mg/kg i.p. with 10 mg/kg Carbi-DOPA and 100 mg/kg L-DOPA. The method, then: as §1
In the second series of tests, male Long-Evans rats prepared and reserpinized as described for the first series, were treated i.p. with 2 mg/kg of MIF or MIF analog, 10 mg/kg of Carbi-DOPA, a competitive inhibitor of DOPA-decarboxylase (to prolong the L-DOPA effect), and 100 mg/kg of L-DOPA. The control group received the latter two substances, but no MIF or MIF analog. Activity of the rats was measured, in counts/10 minutes with a digital printout activity meter, at 15, 35, 55, 75, 95 and 105 minutes after injection.

The mark [4] stands for this setting: Injection: L-DOPA i.p. (13 and 26 mg/kg) alone or in combination with 2 mg/kg MIF or analog i.p.
Where [5] appears, read: Oral: L-DOPA i.p. (13 and 26 mg/kg) alone or in combination with 4 mg/kg MIF or analog by gastric tube.
[6] abbreviates: 10 ng directly into the CSF (lateral ventricle).
The mark [7] stands for this setting: 100 ng directly into the CSF (lateral ventricle).

The structures appear in SMILES notation. Where a SMILES comes first, the peptide text is derived from it. [ ]: non-standard residue; d: D form. pGlu = O=C1CC[C@@H](C(=O)O)N1

Regarding `N[C@@H](Cc1ccc(O)c(O)c1)C(=O)O` [L-DOPA], the “Duration of Reversed Rotational Behavior” value in experiment [1] (setting [4]) and in experiment [1] (setting [5]) was 38 ± 3.4 min each time.

With `CC(C)C[C@H](NC(=O)[C@@H]1CCCN1)C(=O)NCC(N)=O` [MIF, Pro--L--Leu--Gly--NH2, reference compound] (H-Pro-Leu-Gly-NH2), the “% Increase in Activity, Counts/10 Minutes” value in experiment [2] (setting [6]) and in experiment [2] (setting [7]) was “No effect” throughout. For the same compound, the “Duration of Reversed Rotational Behavior” value in experiment [1] (setting [4]) came to 55 ± 6.2 min; in experiment [1] (setting [5]), 58 ± 5.3 min.

`CC(C)C[C@@H](NC(=O)[C@@H]1CCC(=O)N1)C(=O)NCC(N)=O` [pGlu--D--Leu--Gly--NH2] ([pGlu]-[dL]-Gly-NH2): the “% Increase in Activity, counts/10 min.” value in experiment [3] (15 min. after injection) amounted to 126%; in experiment [3] (35 min. after injection), 538%; in experiment [3] (55 min. after injection) it was 2450%; in experiment [3] (75 min. after injection) it was 2036%; in experiment [3] (95 min. after injection), 1035%; in experiment [3] (105 min. after injection), 478%. Moreover, the “% Increase in Activity, Counts/10 Minutes” value in experiment [2] (setting [6]) worked out at 240%; in experiment [2] (setting [7]) it was 360%. Also, the “Duration of Reversed Rotational Behavior” value turned out to be 96 ± 7.9 min in experiment [1] (setting [4]) and 110 ± 9.3 min in experiment [1] (setting [5]).
